Paper PMC12036814 (Angewandte Chemie (International Ed. in English), 2025)
Read-outs that look alike come from different tables or passages of the source.

Tests used:
FAM171A2 = target: T1, FAM171A2 (Homo sapiens, UniProt A8MVW0); test: Thermal protein profiling (TPP) in intact HEK293 cells; type: cell-based; conditions: 1 h
T1 construct: endogenous in cells; host or cells: HEK293
Experimental: (§1) incubated in a thermoshaker (600 rpm, 16 h, 37 °C). The digest was stopped by adding 10 μL formic
(§2) acid (FA) and vortexing followed by centrifugation (12,000 ×g, 3 min, room temperature). 50 mg
(§3) SepPak C18 columns (Waters, Milford, USA, Cat# WAT054960) were equilibrated by gravity flow two
(§4) times with 1 mL acetonitrile and three times with 1 mL aqueous 0.1% trifluoroacetic acid (TFA) solution.
(§5) Subsequently, the samples were loaded by gravity flow, washed three times with 1 mL aqueous 0.1%
(§6) TFA solution and once with 0.5 mL aqueous 0.5% formic acid (F A) solution. Elution of peptides into
(§7) new 2.0 mL Protein LoBind Eppendorf tubes was performed by two times addition of 250 μL elution
(§8) buffer (80% acetonitrile, 0.5% FA) by gravity flow followed by 250 μL elution buffer by vacuum flow
(§9) until all liquid was eluted from the column. The eluates were lyophilized. Before MS measurement the
(§10) (brief centrifugation after each step).
(§11) Thermal protein profiling (TPP)
(§12) The experiment was performed similarly to TPP-TR experiments described by Franken et al. with minor
(§13) modifications.5 HEK293 cells were grown in 8 T175 flasks to approx. 80-90% confluency. Per replicate
(§14) volume of 0.1 N HCl as vehicle control. Per condition two replicates were used, leading to a total of 8
(§15) T175 flasks. The cells were washed with PBS, detached with accutase, the two flask per replicate
(§16) condition combined and the cells pelletized (500 ×g, 3 min, r.t.). The medium was removed and each
(§17) pellet (Cipro #1, Cipro #2, Ctrl. #1, Ctrl #2) washed twice with cold PBS. Each pellet was resuspended
(§18) depending on the sample. The cell suspension of each sample was distributed into 10 PCR tubes
(§19) (100 µL per tube), resulting in 10 stripes á 4 tubes (2×2 conditions, 10 temperature points). The PCR
(§20) tubes were subjected to the temperature gradient using a PCR cycler.
(§21) limitations, two separate programs had to be run to cover the desired temperature range (see
(§22) Table S4). The PCR tubes were heat-treated according to the two programs for 3 min and directly snap
(§23) frozen in liquid nitrogen.
(§24) manufacturer instructions.

MAIP1 = target: T2, MAIP1 (Homo sapiens, UniProt Q8WWC4); test: as above; type: cell-based; conditions: 1 h
T2 construct: endogenous in cells; host or cells: HEK293
T2 sequence (Q8WWC4 97-291): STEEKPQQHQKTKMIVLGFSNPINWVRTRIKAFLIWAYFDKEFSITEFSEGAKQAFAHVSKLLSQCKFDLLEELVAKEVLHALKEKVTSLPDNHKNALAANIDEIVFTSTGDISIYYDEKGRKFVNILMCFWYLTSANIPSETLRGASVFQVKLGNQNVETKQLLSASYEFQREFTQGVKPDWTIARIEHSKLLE
Experimental: as §1, §2, §3, §4, §5, §6, §7, §8, §9, §10, §11, §12, §13, §14, §15, §16, §17, §18, §19, §20, §21, §22, §23, §24

SMG7 = target: T3, SMG7 (Homo sapiens, UniProt Q92540); test: as above; type: cell-based; conditions: 1 h
T3 construct: endogenous in cells; host or cells: HEK293
T3 sequence (Q92540 1-1137): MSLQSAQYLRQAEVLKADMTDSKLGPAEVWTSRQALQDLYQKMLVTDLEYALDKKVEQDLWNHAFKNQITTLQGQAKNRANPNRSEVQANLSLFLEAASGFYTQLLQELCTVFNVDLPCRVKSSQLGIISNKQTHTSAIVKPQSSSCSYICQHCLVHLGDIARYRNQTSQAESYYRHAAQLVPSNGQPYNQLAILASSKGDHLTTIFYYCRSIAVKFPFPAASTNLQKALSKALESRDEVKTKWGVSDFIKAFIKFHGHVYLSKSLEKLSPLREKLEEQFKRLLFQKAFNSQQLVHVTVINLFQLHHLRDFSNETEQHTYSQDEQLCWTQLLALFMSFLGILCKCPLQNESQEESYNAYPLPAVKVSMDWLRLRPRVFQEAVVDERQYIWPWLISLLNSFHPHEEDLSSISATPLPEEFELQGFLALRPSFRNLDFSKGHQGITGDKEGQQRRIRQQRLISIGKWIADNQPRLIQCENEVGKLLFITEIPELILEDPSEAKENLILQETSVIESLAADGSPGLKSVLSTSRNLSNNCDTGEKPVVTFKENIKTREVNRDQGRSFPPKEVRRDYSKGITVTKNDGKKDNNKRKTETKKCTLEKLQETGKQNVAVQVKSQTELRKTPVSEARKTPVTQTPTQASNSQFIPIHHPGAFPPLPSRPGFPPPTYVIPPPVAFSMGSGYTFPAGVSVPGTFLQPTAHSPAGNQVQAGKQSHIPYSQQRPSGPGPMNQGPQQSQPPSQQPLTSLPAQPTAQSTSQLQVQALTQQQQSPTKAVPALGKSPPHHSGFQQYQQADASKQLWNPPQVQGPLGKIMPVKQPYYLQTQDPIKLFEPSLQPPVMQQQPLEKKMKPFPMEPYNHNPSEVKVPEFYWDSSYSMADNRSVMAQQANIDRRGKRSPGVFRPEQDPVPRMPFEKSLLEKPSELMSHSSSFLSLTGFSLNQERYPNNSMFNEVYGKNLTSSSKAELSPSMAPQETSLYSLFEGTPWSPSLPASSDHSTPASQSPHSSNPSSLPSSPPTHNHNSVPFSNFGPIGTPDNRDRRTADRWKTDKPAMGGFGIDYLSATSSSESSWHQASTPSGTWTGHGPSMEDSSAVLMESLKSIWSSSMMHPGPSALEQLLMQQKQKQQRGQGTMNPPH
Experimental: as §1, §2, §3, §4, §5, §6, §7, §8, §9, §10, §11, §12, §13, §14, §15, §16, §17, §18, §19, §20, §21, §22, §23, §24

HEK‐293 cells = test: Whole proteome analysis (LC-MS/MS, LFQ) of treated HEK-293 cells; parameters: regulation of ETC complex I and IV subunits: dose or concentration left out as unconfirmed; conditions: […] μM, 3 h to 14 days, versus control
[1] = system: periodontal ligament cell line (PDL‐hTERT); test: Whole proteome analysis and pathway analysis of treated PDL-hTERT cells; type: cell-based, human; parameters: dose or concentration left out as unconfirmed; conditions: […] μM, 3 days, versus vehicle
NUDT1 = NUDT1 (Homo sapiens, UniProt P36639); test: NUDT1 in vitro activity assay (malachite green); type: biochemical; parameters: Full length NUDT1 gene synthesis; N-terminal His tag with thrombin site from pET28a(+) (NdeI/XhoI) (N, cleaved yes); made in house; host or cells: E. coli BL21 (DE3); conditions: 100 μM
PDL-hTERT cells = test: Live/dead staining and microscopy (morphology); type: cell-based; parameters: dose or concentration left out as unconfirmed; conditions: […] µM, 7 days
Experimental: For PDL-hTERT cells (9 x 10^4 cells /well) were plated in each well of 6 -well plates (Greiner Bio-One,
Frickenhausen, Germany) and incubated for 3 days at 37 °C and 5% CO2. Afterwards, cells were treated
Afterwards, the cells were stained with 1 µM calcein
acetoxymethyl (calcein AM) and 10 µM propidium iodide, diluted from 100 µM and 1 mM stock
solutions respectively. The diluent was given to the cells in a mixture of 1:1 PBS to culture medium.
Calcein AM is cell permeable and in living cells is converted to fluorescent calcein by intracellular
estarases, thus labelling the cells in green colour. Propidium iodide is a fluorescent dye that can only
traverse cells with damaged membranes, thus marking dead cells in red colour (to note: dead cells
frequently detach during the staining procedure). Last, cells were imaged on day 1, 4, and 7 in phase -
contrast, FITC (green) and Cy3 (red) fluorescent channels using Zeiss AxioVert.A1 microscope equipped
with AxioCam ICc1 camera (Carl Zeiss, Göttingen, Germany). Each image was automatically processed
using the “Min/Max” option provided by the micriscope software Zen 2.3 lite (Carl Zeiss). The
experiment was repeated three independent times (n = 3), each performed in duplicate wells for
control and Cipro-containing groups.

SMILES: O=C(O)c1cn(C2CC2)c2cc(N3CCNCC3)c(F)cc2c1=O [Ciprofloxacin]
- ΔTm at 70 µM (FAM171A2; read-out: ΔTm Rep. 1): 5.82 °C
- ΔTm at 70 µM (FAM171A2; read-out: ΔTm Rep. 2): 3.92 °C
- ΔTm at 70 µM (MAIP1; read-out: ΔTm Rep. 1): 2.28 °C
- ΔTm at 70 µM (MAIP1; read-out: ΔTm Rep. 2): 3.73 °C
- ΔTm at 70 µM (SMG7; read-out: ΔTm Rep. 1): 1.67 °C
- ΔTm at 70 µM (SMG7; read-out: ΔTm Rep. 2): 3.28 °C
- regulation of ETC complex I and IV subunits (HEK‐293 cells): pronounced and time‐dependent down‐regulation of both complexes
- regulation of ETC complex I and IV subunits [1]: significant down‐regulation of complex I (blue) and complex IV (green) subunits of the ETC
- NUDT1 in vitro activity, inhibition (NUDT1): significant partial inhibition
- cell morphology (PDL-hTERT cells): cell rounding
